How the values were obtained:
[1] = system: NCI-H1975 cells (human non-small cell lung adenocarcinoma cells); experiment: CCK-8 anti-proliferation assay, NCI-H1975 cells; format: cell-based; conditions: CCK-8, 72 hours incubation
Method: (§1) The anti-proliferation activities of compounds 1-11 to U87MG cells (human malignant glioma cells, ATCC 5018014), NCI-H1975 cells (human non-small cell lung adenocarcinoma cells, ATCC 57849016), A549 cells (human non-small cell lung cancer cells, ATCC 7503618), HCT 116 (human colon cancer cells, ATCC 4587576), and MCF-7 (human breast cancer cells, ATCC 5105360) were verified by using a CCK-8 method.
(§2) A sample stock solution with a concentration of 20 μM was prepared first. The stock solution was sequentially diluted to obtain 10 samples with concentrations of 20000 nM, 4000 nM, 800 nM, 160 nM, 32 nM, 6.4 nM, 1.28 nM, 0.256 nM, 0.0512 nM, and 0.01024 nM, respectively.
(§3) 50 μL of cell suspension with density of 2*10^4 cells/mL was prepared in 96-well plates followed by pre-culturing in the incubator for 24 hours (37° C., 5% CO2). 50 μL of afore-mentioned sample solution was added into each well. After incubated for 72 hours, 10 μl of CCK-8 solution was added into each well, and then further incubated for additional 2 hours.

[2] = Determination of half-lethal dose (LD50) in mice; conditions: both sexes, mouse, in vivo, Kunming mice, gastric administration, Bliss calculation method
Method: The SPF-grade Kunming mice, belonging to the outbred stock and weighing 20±2 g, were selected (a ratio of the males to the females was 1:1). The dosage range of each compound was explored through pre-experiments. After that, formal tests were carried out. In the range of 0-100% of the lethal dose obtained by the pre-experiments, five doses were selected to increase or decrease according to the isobaric series to allow the mortality of one half of the groups to be 50% or above, and the other half to be 50% or less. After animal grouping and dosage calculation were completed, gastric administration was performed according to the group. The time from the administration to the beginning of the occurrence of toxic reaction, the poisoning phenomenon and the occurrence sequence thereof, the time of the first occurrence of death, the time of death concentration, and the time of the last occurrence of death were recorded. The number of deaths in each group was recorded day by day.

[3] = system: MCF-7 (human breast cancer cells); experiment: CCK-8 anti-proliferation assay, MCF-7 cells; format: cell-based; conditions: MCF7, CCK-8, 72 hours incubation, read-out: MCF-7 cell IC50
Method: as §1, §2, §3

[4] = system: HCT 116 (human colon cancer cells); experiment: CCK-8 anti-proliferation assay, HCT 116 cells; format: cell-based; conditions: CCK-8, 72 hours incubation, read-out: HCT116 cell IC50
Method: as §1, §2, §3

[5] = system: A549 cells (human non-small cell lung cancer cells); experiment: CCK-8 anti-proliferation assay, A549 cells; format: cell-based; conditions: CCK-8, 72 hours incubation
Method: as §1, §2, §3

[6] = system: U87MG cells (human malignant glioma cells); experiment: CCK-8 anti-proliferation assay, U87MG cells; format: cell-based; conditions: U-87 MG, CCK-8, 72 hours incubation, read-out: U87MG cell IC50
Method: as §1, §2, §3

[7] = in vivo; cited from earlier work
[8] = oral administrated; cited from earlier work

| SMILES | IC50 [1] | LD50 ([2]; oral) | IC50 [3] | IC50 [4] | IC50 [5] | IC50 [6] | crossing the blood-brain barrier [7] | LD50 [2] | bioavailability [8] |
| --- | --- | --- | --- | --- | --- | --- | --- | --- | --- |
| N#CCCNc1nonc1-c1nc2ccccc2n1CC(F)(F)c1ccc(N)cc1 [Compound 1, 3-[(4-{1-[2-(4-aminophenyl)-2,2-difluoroethyl]-1H-benzimidazol-2-yl}-1,2,5-oxadiazol-3-yl)amino] propionitrile] | 19.4 nM | 267 mg/kg | 33 nM | 19.7 nM | 29 nM | 31.3 nM |  |  |  |
| N#CCCNc1nonc1-c1nc2c(O)cccc2n1CC(F)(F)c1ccc(N)cc1 [Compound 2] | 31.2 nM | 245 mg/kg | 17.4 nM | 28.3 nM | 18.2 nM | 22.4 nM |  |  |  |
| N#CCCNc1nonc1-c1nc2cc(O)ccc2n1CC(F)(F)c1ccc(N)cc1 [Compound 3] | 13.3 nM | 239 mg/kg | 13.2 nM | 13.6 nM | 26.8 nM | 13.2 nM |  |  |  |
| N#CCCNc1nonc1-c1nc2c(Cl)cccc2n1CC(F)(F)c1ccc(N)cc1 [Compound 4] | 14.9 nM | 262 mg/kg | 21.7 nM | 12.1 nM | 12.9 nM | 27.3 nM |  |  |  |
| N#CCCNc1nonc1-c1nc2cc(Cl)ccc2n1CC(F)(F)c1ccc(N)cc1 [Compound 5] | 27.4 nM | 264 mg/kg | 16.9 nM | 35.8 nM | 13.2 nM | 15.7 nM |  |  |  |
| N#CCCNc1nonc1-c1nc2cc(C(F)(F)F)ccc2n1CC(F)(F)c1ccc(N)cc1 [Compound 6] | 11.9 nM | 254 mg/kg | 13.2 nM | 17.2 nM | 14.7 nM | 34.2 nM |  |  |  |
| Cc1ccc2c(c1)nc(-c1nonc1NCCC#N)n2CC(F)(F)c1ccc(N)cc1 [Compound 7] | 32.4 nM | 239 mg/kg | 25.7 nM | 13.7 nM | 13.9 nM | 12.5 nM |  |  |  |
| N#CCCNc1nonc1-c1nc2ccccc2n1CC(F)c1ccc(N)cc1 (stereo not drawn) [Compound 8, 3-[(4-{1-[2-(4-aminophenyl)-2-fluoroethyl]-1H-benzimidazol-2-yl}-1,2,5-oxadiazol-3-yl)amino] propionitrile] | 17.5 nM | 291 mg/kg | 22.8 nM | 24.4 nM | 33.7 nM | 15.6 nM |  |  |  |
| N#CCCNc1nonc1-c1nc2ccccc2n1C(F)(F)c1ccc(N)cc1 [Compound 9] | 19.8 nM | 305 mg/kg | 32.8 nM | 28.5 nM | 28.7 nM | 23.9 nM |  |  |  |
| N#CCCNc1nonc1-c1nc2ccccc2n1CCC(F)(F)c1ccc(N)cc1 [Compound 10] | 34.3 nM | 323 mg/kg | 38.5 nM | 38.7 nM | 41.5 nM | 41.2 nM |  |  |  |
| N#CCCNc1nonc1-c1nc2ccccc2n1CC(=O)c1ccc(N)cc1 [Compound 11, 3-{[4-(1-(4-aminoacetophenone)-benzimidazol-2-yl)-1,2,5-oxadiazol-3-yl]amino}propionitrile, reference compound] | 42.8 nM |  | 39.2 nM | 52.6 nM | 42.4 nM | 51.2 nM | capable of crossing the blood-brain barrier | 153 mg/kg |  |
| Cn1nnc2c(C(N)=O)ncn2c1=O [Temozolomide] |  |  |  |  |  |  | can cross the blood-brain barrier |  | ~100% |

From patent US11787790B2, “Benzimidazole derivative having fluorine-containing substituent, preparation and application thereof” (YUNBAIYAO ZHENGWU SCIENCE AND TECHNOLOGY (SHANGHAI) CO., …, priority 2020, dated 2023)
